Measured values from US20100298141A1, “SUBSTITUTED PYRIDINE N-OXIDE HERBICIDES” (E. I. DU PONT DE NEMOURS AND COMPANY, priority 2007, published 2010).

Tests used:
Test in all cases: Test F preemergence test
[1] = test system: prickly sida; type: in vivo, Sida spinosa; settings: scale 0 to 100
Text: (§1) Seeds of plant species selected from bermudagrass (Cynodon dactylon), Surinam grass (Brachiaria decumbens), large crabgrass (Digitaria sanguinalis), green foxtail (Setaria viridis), goosegrass (Eleusine indica), johnsongrass (Sorghum halepense), kochia (Kochia scoparia), pitted morningglory (Ipomoea lacunosa), purple nutsedge (Cyperus rotundus), common ragweed (Ambrosia elation), mustard (Brassica nigra), guineagrass (Panicum maximum), […] (Paspalum dilatatum), barnyardgrass (Echinochloa crus-galli), southern sandbur (Cenchrus echinatus), common sowthistle (Sonchus oleraceous), prickly […] spinosa), Italian ryegrass (Lolium multiflorum), common purslane (Portulaca oleracea), broadleaf signalgrass (Brachiaria platyphylla), common groundsel (Senecio vulgaris), common chickweed (Stellaria media), Virginia dayflower (Commelina virginica), annual bluegrass (Poa annua), naked crabgrass (Digitaria nuda), […] cochinchinensis), quackgrass (Elytrigia repens), Canada horseweed (Conyza canadensis), field bindweed (Convolvulus arvensis), […] (Bidens bipinnata), common mallow (Malva sylvestris), Russian thistle (Salsola kali), and sugarcane (Saccharum officinarum) were planted and treated preemergence with test chemicals formulated in a non-phytotoxic solvent mixture which included a surfactant. At a different time, sugarcane was treated with postemergence applications of some of the test chemicals formulated in the same manner. Plants were approximately 3- to 4-leaf stage for the postemergence treatments. Treated plants and controls were maintained in a greenhouse for 14 to 21 days, after which time all species were compared to controls and visually evaluated. […] A dash (-) response means no test result.

[2] = test system: field bindweed; type: in vivo, Convolvulus arvensis; settings: scale 0 to 100
Text: as §1

[3] = test system: common mallow; type: in vivo, Malva sylvestris; settings: scale 0 to 100
Text: as §1

[4] = test system: common groundsel; type: in vivo, Senecio vulgaris; settings: scale 0 to 100
Text: as §1

[5] = test system: barnyardgrass; type: in vivo, Echinochloa crus-galli
Text: as §1

[6] = test system: common purslane; type: in vivo, Portulaca oleracea; settings: scale 0 to 100
Text: as §1

[7] = test system: itchgrass; type: in vivo, Rottboellia cochinchinensis; settings: scale 0 to 100
Text: as §1

[8] = test system: mustard; type: in vivo, Brassica nigra; settings: scale 0 to 100
Text: as §1

[9] = test system: quackgrass; type: in vivo, Elytrigia repens; settings: scale 0 to 100
Text: as §1

[10] = test system: green foxtail; type: in vivo, Setaria viridis; settings: scale 0 to 100
Text: as §1

[11] = test system: dallisgrass; type: in vivo, Paspalum dilatatum; settings: scale 0 to 100
Text: as §1

[12] = test system: southern sandbur; type: in vivo, Cenchrus echinatus; settings: scale 0 to 100
Text: as §1

[13] = test system: guineagrass; type: in vivo, Panicum maximum; settings: scale 0 to 100
Text: as §1

[14] = 62 g ai/ha, Preemergence, scale 0 to 100
[15] = Preemergence, 31 g ai/ha, scale 0 to 100

Cn1nc(C(F)(F)F)c(CS(=O)(=O)c2cccc[n+]2[O-])c1OC(F)F [Compound 4]
Plant response rating, Prickly Sida ([1]; 8 g ai/ha, preemergence): 0
Prickly Sida plant response rating ([1]; 62 g ai/ha, Preemergence): 0
Plant response rating, Prickly Sida ([1]; Preemergence, 16 g ai/ha): 0
Plant response rating, Prickly Sida ([1]; Preemergence, 31 g ai/ha): 0
Plant response rating, Field Bindweed ([2]; 8 g ai/ha, preemergence): 0
Field Bindweed plant response rating ([2]; 62 g ai/ha, Preemergence): 0
Plant response rating, Field Bindweed ([2]; Preemergence, 16 g ai/ha): 0
Plant response rating, Field Bindweed ([2]; Preemergence, 31 g ai/ha): 0
Plant response rating, Mallow ([3]; 8 g ai/ha, preemergence): 0
Mallow plant response rating ([3]; 62 g ai/ha, Preemergence): 0
Plant response rating, Mallow ([3]; Preemergence, 16 g ai/ha): 0
Plant response rating, Mallow ([3]; Preemergence, 31 g ai/ha): 0
Plant response rating, Groundsel ([4]; 8 g ai/ha, preemergence): 10
Groundsel plant response rating ([4]; 62 g ai/ha, Preemergence): 100
Plant response rating, Groundsel ([4]; Preemergence, 16 g ai/ha): 25
Plant response rating, Groundsel ([4]; Preemergence, 31 g ai/ha): 100
Plant response rating, Barnyardgrass ([5]; 8 g ai/ha, preemergence, scale 0 to 100): 10
Barnyardgrass plant response rating [5, 14]: 80
Plant response rating, Barnyardgrass ([5]; Preemergence, 16 g ai/ha, scale 0 to 100): 65
Plant response rating, Barnyardgrass [5, 15]: 80
Plant response rating, Purslane ([6]; 8 g ai/ha, preemergence): 15
Purslane plant response rating ([6]; 62 g ai/ha, Preemergence): 20
Plant response rating, Purslane ([6]; Preemergence, 16 g ai/ha): 15
Plant response rating, Purslane ([6]; Preemergence, 31 g ai/ha): 20
Plant response rating, Itchgrass ([7]; 8 g ai/ha, preemergence): 0
Itchgrass plant response rating ([7]; 62 g ai/ha, Preemergence): 100
Plant response rating, Itchgrass ([7]; Preemergence, 16 g ai/ha): 0
Plant response rating, Itchgrass ([7]; Preemergence, 31 g ai/ha): 35
Plant response rating, Black Mustard ([8]; 8 g ai/ha, preemergence): 0
Black Mustard plant response rating ([8]; 62 g ai/ha, Preemergence): 98
Plant response rating, Black Mustard ([8]; Preemergence, 16 g ai/ha): 20
Plant response rating, Black Mustard ([8]; Preemergence, 31 g ai/ha): 98
Plant response rating, Quackgrass ([9]; 8 g ai/ha, preemergence): 0
Quackgrass plant response rating ([9]; 62 g ai/ha, Preemergence): 75
Plant response rating, Quackgrass ([9]; Preemergence, 16 g ai/ha): 0
Plant response rating, Quackgrass ([9]; Preemergence, 31 g ai/ha): 35
Plant response rating, Foxtail, Green ([10]; 8 g ai/ha, preemergence): 0
Foxtail, Green plant response rating ([10]; 62 g ai/ha, Preemergence): 95
Plant response rating, Foxtail, Green ([10]; Preemergence, 16 g ai/ha): 35
Plant response rating, Foxtail, Green ([10]; Preemergence, 31 g ai/ha): 70
Plant response rating, Dallisgrass ([11]; 8 g ai/ha, preemergence): 0
Dallisgrass plant response rating ([11]; 62 g ai/ha, Preemergence): 80
Plant response rating, Dallisgrass ([11]; Preemergence, 16 g ai/ha): 0
Plant response rating, Dallisgrass ([11]; Preemergence, 31 g ai/ha): 35
Plant response rating, Sandbur ([12]; 8 g ai/ha, preemergence): 25
Plant response rating, Sandbur ([12]; 16 g ai/ha, preemergence): 90
Sandbur plant response rating ([12]; 62 g ai/ha, Preemergence): 100
Plant response rating, Sandbur ([12]; Preemergence, 31 g ai/ha): 100
Plant response rating, Guineagrass ([13]; 8 g ai/ha, preemergence): 50
Guineagrass plant response rating ([13]; 62 g ai/ha, Preemergence): 100
Plant response rating, Guineagrass ([13]; Preemergence, 16 g ai/ha): 80
Plant response rating, Guineagrass ([13]; Preemergence, 31 g ai/ha): 100

CCn1nc(C(F)(F)F)c(C[S+]([O-])c2cc(C)cc[n+]2[O-])c1OCC(F)(F)F (racemic) [Compound 66]
Plant response rating, Prickly Sida ([1]; 16 g ai/ha, preemergence): 20
Prickly Sida plant response rating ([1]; 62 g ai/ha, Preemergence): 75
Prickly Sida plant response rating ([1]; 125 g ai/ha, preemergence): 98
Plant response rating, Prickly Sida ([1]; Preemergence, 31 g ai/ha): 20
Plant response rating, Field Bindweed ([2]; 16 g ai/ha, preemergence): 30
Field Bindweed plant response rating ([2]; 62 g ai/ha, Preemergence): 40
Field Bindweed plant response rating ([2]; 125 g ai/ha, preemergence): 75
Plant response rating, Field Bindweed ([2]; Preemergence, 31 g ai/ha): 40
Plant response rating, Mallow ([3]; 16 g ai/ha, preemergence): 0
Mallow plant response rating ([3]; 62 g ai/ha, Preemergence): 80
Mallow plant response rating ([3]; 125 g ai/ha, preemergence): 100
Plant response rating, Mallow ([3]; Preemergence, 31 g ai/ha): 70
Groundsel plant response rating ([4]; 62 g ai/ha, Preemergence): 80
Groundsel plant response rating ([4]; 125 g ai/ha, preemergence): 100
Plant response rating, Groundsel ([4]; Preemergence, 31 g ai/ha): 20
Plant response rating, Barnyardgrass ([5]; 16 g ai/ha, preemergence, scale 0 to 100 (0 no effect, 100 complete control)): 30
Barnyardgrass plant response rating [5, 14]: 100
Barnyardgrass plant response rating ([5]; 125 g ai/ha, preemergence, scale 0 to 100): 100
Plant response rating, Barnyardgrass [5, 15]: 75
Plant response rating, Purslane ([6]; 16 g ai/ha, preemergence): 0
Purslane plant response rating ([6]; 62 g ai/ha, Preemergence): 50
Purslane plant response rating ([6]; 125 g ai/ha, preemergence): 60
Plant response rating, Purslane ([6]; Preemergence, 31 g ai/ha): 0
Plant response rating, Itchgrass ([7]; 16 g ai/ha, preemergence): 0
Itchgrass plant response rating ([7]; 62 g ai/ha, Preemergence): 70
Itchgrass plant response rating ([7]; 125 g ai/ha, preemergence): 90
Plant response rating, Itchgrass ([7]; Preemergence, 31 g ai/ha): 50
Plant response rating, Black Mustard ([8]; 16 g ai/ha, preemergence): 50
Black Mustard plant response rating ([8]; 62 g ai/ha, Preemergence): 100
Black Mustard plant response rating ([8]; 125 g ai/ha, preemergence): 100
Plant response rating, Black Mustard ([8]; Preemergence, 31 g ai/ha): 65
Plant response rating, Quackgrass ([9]; 16 g ai/ha, preemergence): 70
Quackgrass plant response rating ([9]; 62 g ai/ha, Preemergence): 85
Quackgrass plant response rating ([9]; 125 g ai/ha, preemergence): 100
Plant response rating, Quackgrass ([9]; Preemergence, 31 g ai/ha): 75
Plant response rating, Foxtail, Green ([10]; 16 g ai/ha, preemergence): 10
Foxtail, Green plant response rating ([10]; 62 g ai/ha, Preemergence): 90
Foxtail, Green plant response rating ([10]; 125 g ai/ha, preemergence): 100
Plant response rating, Foxtail, Green ([10]; Preemergence, 31 g ai/ha): 60
Plant response rating, Dallisgrass ([11]; 16 g ai/ha, preemergence): 0
Dallisgrass plant response rating ([11]; 62 g ai/ha, Preemergence): 95
Dallisgrass plant response rating ([11]; 125 g ai/ha, preemergence): 100
Plant response rating, Dallisgrass ([11]; Preemergence, 31 g ai/ha): 65
Plant response rating, Sandbur ([12]; 16 g ai/ha, preemergence): 15
Sandbur plant response rating ([12]; 125 g ai/ha, preemergence): 100
Plant response rating, Sandbur ([12]; Preemergence, 62 g ai/ha): 100
Plant response rating, Sandbur ([12]; Preemergence, 31 g ai/ha): 70
Plant response rating, Guineagrass ([13]; 16 g ai/ha, preemergence): 20
Guineagrass plant response rating ([13]; 62 g ai/ha, Preemergence): 100
Guineagrass plant response rating ([13]; 125 g ai/ha, preemergence): 100
Plant response rating, Guineagrass ([13]; Preemergence, 31 g ai/ha): 80
